Series [1] deals with T1, SmCHS2 (chitin synthase 2) (Saprolegnia monoica, UniProt D7NQS9).
T1 construct: full-length SmCHS2 (962 amino acids) fused to eGFP at its C-terminus, expressed in Pichia pastoris, CHAPS extract of membranes
T1 sequence (D7NQS9 1-962): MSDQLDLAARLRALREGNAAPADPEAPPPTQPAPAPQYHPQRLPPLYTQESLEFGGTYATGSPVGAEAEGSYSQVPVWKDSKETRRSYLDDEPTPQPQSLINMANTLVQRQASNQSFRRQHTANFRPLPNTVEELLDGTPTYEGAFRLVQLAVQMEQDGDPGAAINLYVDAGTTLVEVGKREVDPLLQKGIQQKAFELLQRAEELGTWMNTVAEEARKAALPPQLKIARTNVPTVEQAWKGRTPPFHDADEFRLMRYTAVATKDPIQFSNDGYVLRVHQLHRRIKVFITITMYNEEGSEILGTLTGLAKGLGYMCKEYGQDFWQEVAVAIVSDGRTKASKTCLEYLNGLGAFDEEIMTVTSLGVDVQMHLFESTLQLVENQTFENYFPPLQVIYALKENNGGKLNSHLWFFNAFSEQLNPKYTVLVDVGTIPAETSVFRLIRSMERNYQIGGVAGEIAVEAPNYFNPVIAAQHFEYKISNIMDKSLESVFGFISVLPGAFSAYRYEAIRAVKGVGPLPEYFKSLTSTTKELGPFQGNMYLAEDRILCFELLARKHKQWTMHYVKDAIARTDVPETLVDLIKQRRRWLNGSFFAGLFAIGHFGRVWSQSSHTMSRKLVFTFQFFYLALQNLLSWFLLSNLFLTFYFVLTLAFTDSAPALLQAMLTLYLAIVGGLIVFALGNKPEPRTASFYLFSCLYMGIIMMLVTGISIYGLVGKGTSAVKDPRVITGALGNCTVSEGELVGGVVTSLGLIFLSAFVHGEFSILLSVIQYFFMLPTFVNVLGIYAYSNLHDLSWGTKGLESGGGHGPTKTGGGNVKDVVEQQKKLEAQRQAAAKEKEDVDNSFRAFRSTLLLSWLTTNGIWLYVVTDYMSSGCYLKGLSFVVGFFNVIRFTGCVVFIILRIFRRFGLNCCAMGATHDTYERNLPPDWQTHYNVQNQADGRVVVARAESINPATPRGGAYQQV
Description: radiometric chitin synthase assay ([…]-UDP-GlcNAc) on CHAPS membrane extract of recombinant Pichia; Dixon plots. The series is classed as biochemical.

Substrate in series [2]: CC(=O)N[C@H]1[C@@H](OP(=O)(O)OP(=O)(O)OC[C@H]2O[C@@H](n3ccc(=O)[nH]c3=O)[C@H](O)[C@@H]2O)O[C@H](CO)[C@@H](O)[C@@H]1O
Description: radiometric chitin synthase assay on CHAPS membrane extract of recombinant Pichia; apparent Km. The series is classed as biochemical, Saprolegnia monoica.

As to `C[C@@H]([C@H](N)C(=O)N[C@H](C(=O)O)[C@H]1O[C@@H](n2ccc(=O)[nH]c2=O)[C@H](O)[C@@H]1O)[C@H](O)c1ccc(O)cn1` [nikkomycin Z], the Ki (usually a measure of affinity in units of concentration, obtained from inhibition or displacement) in series [1] came out at 4.6 µM.

B1: SmCHS2 (chitin synthase 2) (Saprolegnia monoica) (protein)
chain: MSDQLDLAARLRALREGNAAPADPEAPPPTQPAPAPQYHPQRLPPLYTQESLEFGGTYATGSPVGAEAEGSYSQVPVWKDSKETRRSYLDDEPTPQPQSLINMANTLVQRQASNQSFRRQHTANFRPLPNTVEELLDGTPTYEGAFRLVQLAVQMEQDGDPGAAINLYVDAGTTLVEVGKREVDPLLQKGIQQKAFELLQRAEELGTWMNTVAEEARKAALPPQLKIARTNVPTVEQAWKGRTPPFHDADEFRLMRYTAVATKDPIQFSNDGYVLRVHQLHRRIKVFITITMYNEEGSEILGTLTGLAKGLGYMCKEYGQDFWQEVAVAIVSDGRTKASKTCLEYLNGLGAFDEEIMTVTSLGVDVQMHLFESTLQLVENQTFENYFPPLQVIYALKENNGGKLNSHLWFFNAFSEQLNPKYTVLVDVGTIPAETSVFRLIRSMERNYQIGGVAGEIAVEAPNYFNPVIAAQHFEYKISNIMDKSLESVFGFISVLPGAFSAYRYEAIRAVKGVGPLPEYFKSLTSTTKELGPFQGNMYLAEDRILCFELLARKHKQWTMHYVKDAIARTDVPETLVDLIKQRRRWLNGSFFAGLFAIGHFGRVWSQSSHTMSRKLVFTFQFFYLALQNLLSWFLLSNLFLTFYFVLTLAFTDSAPALLQAMLTLYLAIVGGLIVFALGNKPEPRTASFYLFSCLYMGIIMMLVTGISIYGLVGKGTSAVKDPRVITGALGNCTVSEGELVGGVVTSLGLIFLSAFVHGEFSILLSVIQYFFMLPTFVNVLGIYAYSNLHDLSWGTKGLESGGGHGPTKTGGGNVKDVVEQQKKLEAQRQAAAKEKEDVDNSFRAFRSTLLLSWLTTNGIWLYVVTDYMSSGCYLKGLSFVVGFFNVIRFTGCVVFIILRIFRRFGLNCCAMGATHDTYERNLPPDWQTHYNVQNQADGRVVVARAESINPATPRGGAYQQV
notes: full-length SmCHS2 (962 amino acids) fused to eGFP at its C-terminus, expressed in Pichia pastoris, CHAPS extract of membranes
With B1, in series [2], the Km is recorded as 150+12 µM.

Values taken from paper PMC2928807, “Chitin Synthases from Saprolegnia Are Involved in Tip Growth and Represent a Potential Target for Anti-Oomycete Drugs” (PLoS Pathogens, 2010).
